Test results taken from paper PMC2613833 (Bioorganic & medicinal chemistry, 2008).
Structures can show the parent of a compound that is named as a salt. Where two headings read alike, the source gives them in different places.

Experiments:
[1] = molecular target: T1, estrogen receptor α (ERα) (Homo sapiens, UniProt P03372); assay: Luciferase reporter gene assay; type: cell-based; conditions: for IC50: HEC-1 cells, full-length ERα, 1 nM estradiol, 24 h
T1 sequence (P03372 1-595): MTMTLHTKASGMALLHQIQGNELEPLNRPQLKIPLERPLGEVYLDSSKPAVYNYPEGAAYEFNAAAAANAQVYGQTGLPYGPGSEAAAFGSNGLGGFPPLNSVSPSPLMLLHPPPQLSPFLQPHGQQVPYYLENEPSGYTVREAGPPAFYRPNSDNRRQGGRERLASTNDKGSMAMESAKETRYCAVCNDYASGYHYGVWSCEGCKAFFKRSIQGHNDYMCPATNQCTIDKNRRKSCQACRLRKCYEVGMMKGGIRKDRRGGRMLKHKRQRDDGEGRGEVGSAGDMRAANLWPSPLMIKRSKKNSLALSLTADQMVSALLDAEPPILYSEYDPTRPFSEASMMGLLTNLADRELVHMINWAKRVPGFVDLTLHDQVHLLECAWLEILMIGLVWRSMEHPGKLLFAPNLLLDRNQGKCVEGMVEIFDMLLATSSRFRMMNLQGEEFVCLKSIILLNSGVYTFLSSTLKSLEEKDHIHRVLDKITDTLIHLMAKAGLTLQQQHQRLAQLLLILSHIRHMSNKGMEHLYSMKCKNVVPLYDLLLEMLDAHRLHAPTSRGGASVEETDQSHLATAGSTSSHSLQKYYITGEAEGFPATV

[2] = molecular target: T2, Gal4-SRC-1NRD / ERαDEF-VP16 (Homo sapiens, UniProt P03372); assay: Mammalian two hybrid; type: cell-based; conditions: read-out: IC50, CBI inhibition in the M2H assay; HEC-1 cells, 1 nM estradiol, 24 h
T2 sequence (P03372 264-595 limits assumed): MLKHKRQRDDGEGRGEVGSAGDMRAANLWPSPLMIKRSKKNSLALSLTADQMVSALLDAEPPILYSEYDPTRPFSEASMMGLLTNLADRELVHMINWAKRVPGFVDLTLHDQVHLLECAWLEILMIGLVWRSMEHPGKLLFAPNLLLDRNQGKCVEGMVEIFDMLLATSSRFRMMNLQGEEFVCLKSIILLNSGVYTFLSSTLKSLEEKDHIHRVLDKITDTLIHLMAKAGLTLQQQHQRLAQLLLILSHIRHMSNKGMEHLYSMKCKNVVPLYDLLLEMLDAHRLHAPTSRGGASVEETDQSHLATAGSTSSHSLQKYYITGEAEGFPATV

ER = conditions: read-out: IC50, CBI activity against ER; mammalian two-hybrid (M2H) assay; cited from earlier work
ERα = molecular target: T3, ERα (Homo sapiens, UniProt P03372); assay: Covalent attachment test, ESI mass spectrometry of ER after incubation; conditions: 30 min at 4 °C in phosphate-buffered saline, dialysis overnight, low-res ESI
T3 sequence (P03372 1-595): T1 sequence (P03372 1-595)

[3] = molecular target: T4, recombinant estrogen receptor ligand binding domain / fluorescein-labeled SRC peptide (Homo sapiens, UniProt P03372); assay: Fluorescence polarization assay of ER/coactivator interaction; conditions: 1 μM estradiol, Figure 1
T4 sequence (P03372 311-547 limits assumed): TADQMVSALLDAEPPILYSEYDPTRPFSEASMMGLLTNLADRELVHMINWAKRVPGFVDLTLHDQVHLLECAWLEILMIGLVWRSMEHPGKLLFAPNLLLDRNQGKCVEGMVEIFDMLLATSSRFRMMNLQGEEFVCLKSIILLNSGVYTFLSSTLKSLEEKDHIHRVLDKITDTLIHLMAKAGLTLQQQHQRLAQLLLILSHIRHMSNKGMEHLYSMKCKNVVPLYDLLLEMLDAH

[4] = tested on: ER transactivation in human breast cancer MCF-7 cells; conditions: cited from earlier work
[5] = read-out: IC50, CBI inhibition of reporter gene activity
[6] = IC50, CBI inhibition of reporter gene activity

Row | Molecule | IC50 [1, 6] [µM] | also measured
1 | hydroxytamoxifen [reference compound] | – | increase in IC50 with a 100-fold higher estradiol concentration ([1]; reporter gene assay, 1 nM vs 100 nM estradiol, Figure 4b): 100 fold
2 | 3-Chloro-3-naphthalen-1-yl-propenal aminoguanylhydrazone HCl [compound 30] | – | IC50 [2]: ≥ 50 µM; IC50 [1, 5]: ≥ 50 µM
3 | N=C(N)N/N=C/C1=C(Cl)c2ccccc2CC1 [compound 1, 1-Chloro-3,4-dihydronaphthalene-2-carboxaldehyde aminoguanylhydrazone HCl] | – | IC50 (ER): 5.5 µM; change in molecular weight of ER (covalent attachment) (ERα): no change in molecular weight was observed; inhibition of ER/coactivator interaction [3]: Dose-dependent inhibition; ER transactivation [4]: inhibited ER transactivation
4 | N=C(N)N/N=C/c1cccc2ccccc12 [compound 31, 2-(1-Naphthalenylmethylene) hydrazinecarboximidamide HCl] | 7.5 | –
5 | 1-(1-Chloro-3,4-dihydro-naphthalen-2-yl)-ethanone aminoguanylhydrazone HCl [compound 33] | – | IC50 [1, 5]: ≥ 50 µM
6 | N=C(N)N/N=C/C1=C(Br)c2ccccc2CC1 [compound 24, 1-Bromo-3,4-dihydronaphthalene-2-carboxaldehyde aminoguanylhydrazone HCl] | 7.8 ± 0.1 | –
7 | N=C(N)N/N=C/C1=C(C(F)(F)F)c2ccccc2CC1 [compound 27, 1-(1,1,1,-Trifluoromethyl)-3,4-dihydronaphthalene-2-carboxaldehyde aminoguanylhydrazone HCl] | 12 | –
8 | N=C(N)N/N=C/c1ccc2ccccc2c1 [compound 32, 2-(2-Naphthalenylmethylene)hydrazinecarboximidamide HCl] | 7.5 ± 0.5 | –

More lines, main results first:

Row | IC50 [1, 6] [µM] | Molecule | also measured
9 | 1.2 ± 0.1 | Cc1cc(C)c2c(c1)C(Cl)=C(/C=N/NC(=N)N)CC2 [compound 20, 1-Chloro-5,7-dimethyl-3,4-dihydronaphthalene-2-carboxaldehyde aminoguanylhydrazone HCl] | –
10 | 1.5 | CC1CC(/C=N/NC(=N)N)=C(Cl)c2ccccc21 (centres unmarked) [compound 21, 1-Chloro-3-dihydro-4-methylnaphthalene-2-carboxaldehyde aminoguanylhydrazone HCl] | –
11 | 1.4 ± 0.4 | CC(/C=N/NC(=N)N)=C(/Cl)c1ccccc1 [compound 29, β-Chloro-α-methylcinnamaldehyde aminoguanylhydrazone HCl] | inhibition of ER/coactivator interaction [3]: Dose-dependent inhibition
12 | 3.3 ± 0.8 | N=C(N)N/N=C/C1=C(Cl)c2ccccc2CCC1 [compound 23, 9-Chloro-6,7-dihydro-5-benzocycloheptene-8-carboxaldehyde aminoguanylhydrazone HCl] | inhibition of ER/coactivator interaction [3]: Dose-dependent inhibition
13 | 3.5 ± 1.1 | N=C(N)N/N=C/C1=C(Oc2ccccc2)c2ccccc2CC1 [compound 26, 1-Phenoxy-3,4-dihydronaphthalene-2-carboxaldehyde aminoguanylhydrazone HCl] | –
14 | 3.1 ± 0.8 | COC1=C(/C=N/NC(=N)N)CCc2ccccc21 [compound 25, 1-Methoxy-3,4-dihydronaphthalene-2-carboxaldehyde aminoguanylhydrazone HCl] | –
